Counter-ions that a name gives are not always drawn. Like-named read-outs stand apart in the source and are kept apart here.
Assay: phase I plasma pharmacokinetics (non-compartmental, LC-MS/MS)
Assay type: in vivo, human
Conditions: plasma, plasma; for Tmax / Vd/F / AUC(0-t) / AUC(0-inf) / Cmax / half-life / AUC: human; for Tmax / Vd/F / AUC(0-t) / AUC(0-inf) / Cmax / half-life: po; for AUC: read-out: AUCτ,ss, mean (min–max)
Protocol: This was a phase I, single-center, open-label, dose-escalation study conducted at First Hospital of Jilin University, China (registration no.: ChiCTR-OPC-15007153 registered at http://www.chictr.org.cn). Larotinib mesylate hard capsules were produced and supplied by Sunshine Lake Pharma Co., Ltd (Guangdong Province, China) in different unit doses of […] under GMP condition. Seven dose levels were designed in the study: 50, 100, 150, 220, 300, 350, and 400 mg with administration stages labeled cycle 0, cycle 1, and subsequent treatment cycles. Patients received an oral single dose of larotinib mesylate after fasting during a 6-days cycle 0 to evaluate the tolerance and pharmacokinetic characteristics. After cycle 0, larotinib mesylate was continuously administered once daily for 28 days in cycle 1, and the tolerance and pharmacokinetic characteristics of multiple doses were evaluated (Figure 2). The patients who […] disease control (complete response [CR], partial response [PR], or stable disease [SD]) at the end of cycle one were permitted to participate in the subsequent 28-days treatment cycles until progressive disease (PD) or intolerance was observed.
Blood samples (4 ml) for pharmacokinetic analyses were collected in tubes containing K2EDTA anticoagulant. Blood samples were centrifuged at 3,000 rpm for 10 min at 4°C and stored at –80°C until liquid chromatography-mass spectrophotometry (LC-MS/MS) analysis. Urine and fecal samples were collected only when patients were given the150-mg and 220-mg dose levels at sampling time intervals of 0–4, 4–8, 8–12, 12–24, 24–48, 48–72, 72–96 and 96–120 h in cycle 0.
Linear mixed effects model was used to explore the dose exposure relationships. Dose proportionality was concluded if the 95% confidence interval (CI) of the linear regression slope was completely contained within the decision interval (1 + ln (0.8)/ln (8)∼1 + ln (1.25)/ln (8)). For urine and fecal data, the accumulative excretion rates of larotinib and M5 were calculated.
Bioanalysis was performed at Frontage Company (Shanghai, China). Validated high-performance LC-MS/MS method was used to quantify the concentrations of larotinib and M5 in plasma, urine and feces samples. Protein precipitation was employed for plasma, urine and feces processing. Plasma larotinib and M5 concentrations were determined using appropriate calibration curves obtained from standards in the range of 0.5–1,000 ng/ml. The interassay precision of the analysis method were 4.2–5.4% for larotinib and 3.9–4.3% for M5. The interassay accuracy of the analysis method were 100.4–103.4% for larotinib and 102.2–102.9% for M5, respectively.
Statistical analyses were performed using SAS software, version 9.2 (SAS Institute Inc., United States). Descriptive statistics were used to summarize continuous variables as cases, means with standard deviations (SDs), medians, quartiles, maximums and minimums. For categorical variables, frequencies and percentages were used. A linear mixed effects model, relating log-transformed Cmax and AUC parameters to log-transformed dose, was used to investigate dose proportionality.

[1] = multiple oral administration, 50 mg larotinib mesylate, steady state
[2] = multiple oral administration, 100 mg larotinib mesylate, steady state
[3] = multiple oral administration, 150 mg larotinib mesylate, steady state
[4] = multiple oral administration, 220 mg larotinib mesylate, steady state
[5] = multiple oral administration, 300 mg larotinib mesylate, steady state
[6] = multiple oral administration, 350 mg larotinib mesylate, steady state
[7] = multiple oral administration, 400 mg larotinib mesylate, steady state

In the case of `COc1cc2ncnc(Nc3ccc(F)c(Cl)c3)c2cc1OCCCN1C[C@@H]2OCCO[C@@H]2C1` [larotinib mesylate], the Tmax (300 mg, multiple oral administration, 300 mg larotinib mesylate, steady state, read-out: Tmax,ss, median (min–max)) was 5 h, the Vd/F (300 mg, multiple oral administration, 300 mg larotinib mesylate, steady state, read-out: Vz/F,ss, mean (min–max)) was 1060 L and the AUC(0-t) (300 mg, single oral administration, 300 mg larotinib mesylate, read-out: AUC0-24, mean (min–max)) was 2690 ng·h/mL. For the same compound, the AUC(0-t) (300 mg, single oral administration, 300 mg larotinib mesylate, read-out: AUC0-t, mean (min–max)) was 4880 ng·h/mL, the AUC(0-inf) (300 mg, single oral administration, 300 mg larotinib mesylate, read-out: AUC0-∞, mean (min–max)) was 5550 ng·h/mL and the Cmax (300 mg, single oral administration, 300 mg larotinib mesylate, read-out: Cmax, mean (min–max)) was 267 ng/mL. For the same compound, the half-life (300 mg, single oral administration, 300 mg larotinib mesylate, read-out: T1/2, mean (min–max) (converted)) was 46.2 h, the Tmax (300 mg, single oral administration, 300 mg larotinib mesylate, read-out: Tmax, median (min–max)) was 5 h and the Vd/F (300 mg, single oral administration, 300 mg larotinib mesylate, read-out: Vz/F, mean (min–max)) was 4340 L. For the same compound, the AUC(0-t) (350 mg, multiple oral administration, 350 mg larotinib mesylate, steady state, read-out: AUC0-t,ss, mean (min–max)) was 35900 ng·h/mL, the AUC(0-inf) (350 mg, multiple oral administration, 350 mg larotinib mesylate, steady state, read-out: AUC0-∞,ss, mean (min–max)) was 47300 ng·h/mL and the Cmax (350 mg, multiple oral administration, 350 mg larotinib mesylate, steady state, read-out: Cmax,ss, mean (min–max)) was 695 ng/mL. For the same compound, the half-life (350 mg, multiple oral administration, 350 mg larotinib mesylate, steady state, read-out: T1/2,ss, mean (min–max) (converted)) was 58.6 h, the Tmax (350 mg, multiple oral administration, 350 mg larotinib mesylate, steady state, read-out: Tmax,ss, median (min–max)) was 5 h and the Vd/F (350 mg, multiple oral administration, 350 mg larotinib mesylate, steady state, read-out: Vz/F,ss, mean (min–max)) was 641 L. For the same compound, the AUC(0-t) (350 mg, single oral administration, 350 mg larotinib mesylate, read-out: AUC0-24, mean (min–max)) was 3240 ng·h/mL, the AUC(0-t) (350 mg, single oral administration, 350 mg larotinib mesylate, read-out: AUC0-t, mean (min–max)) was 6120 ng·h/mL and the AUC(0-inf) (350 mg, single oral administration, 350 mg larotinib mesylate, read-out: AUC0-∞, mean (min–max)) was 6830 ng·h/mL. It also gave a Cmax (350 mg, single oral administration, 350 mg larotinib mesylate, read-out: Cmax, mean (min–max)) of 300 ng/mL, a half-life (350 mg, single oral administration, 350 mg larotinib mesylate, read-out: T1/2, mean (min–max) (converted)) of 44.6 h and a Tmax (350 mg, single oral administration, 350 mg larotinib mesylate, read-out: Tmax, median (min–max)) of 3.5 h. It also gave a Vd/F (350 mg, single oral administration, 350 mg larotinib mesylate, read-out: Vz/F, mean (min–max)) of 3800 L, an AUC(0-t) (400 mg, multiple oral administration, 400 mg larotinib mesylate, steady state, read-out: AUC0-t,ss, mean (min–max)) of 45000 ng·h/mL and an AUC(0-inf) (400 mg, multiple oral administration, 400 mg larotinib mesylate, steady state, read-out: AUC0-∞,ss, mean (min–max)) of 70400 ng·h/mL. For the same compound, the Cmax (400 mg, multiple oral administration, 400 mg larotinib mesylate, steady state, read-out: Cmax,ss, mean (min–max)) was 845 ng/mL, the half-life (400 mg, multiple oral administration, 400 mg larotinib mesylate, steady state, read-out: T1/2,ss, mean (min–max) (converted)) was 87 h and the Tmax (400 mg, multiple oral administration, 400 mg larotinib mesylate, steady state, read-out: Tmax,ss, median (min–max)) was 6 h. The Vd/F (400 mg, multiple oral administration, 400 mg larotinib mesylate, steady state, read-out: Vz/F,ss, mean (min–max)) was 754 L, the AUC(0-t) (400 mg, single oral administration, 400 mg larotinib mesylate, read-out: AUC0-24, mean (min–max)) was 3970 ng·h/mL and the AUC(0-t) (400 mg, single oral administration, 400 mg larotinib mesylate, read-out: AUC0-t, mean (min–max)) was 7440 ng·h/mL. The AUC(0-inf) (400 mg, single oral administration, 400 mg larotinib mesylate, read-out: AUC0-∞, mean (min–max)) was 9090 ng·h/mL, the Cmax (400 mg, single oral administration, 400 mg larotinib mesylate, read-out: Cmax, mean (min–max)) was 354 ng/mL and the half-life (400 mg, single oral administration, 400 mg larotinib mesylate, read-out: T1/2, mean (min–max) (converted)) was 68.6 h. For the same compound, the Tmax (400 mg, single oral administration, 400 mg larotinib mesylate, read-out: Tmax, median (min–max)) was 5 h, the Vd/F (400 mg, single oral administration, 400 mg larotinib mesylate, read-out: Vz/F, mean (min–max)) was 7410 L and the half-life (single oral dose, across 50–400 mg, read-out: mean t1/2) was 39.3 to 68.6 h. For the same compound, the Tmax (single oral dose, across 50–400 mg, read-out: median Tmax) was 3.5 to 6 h, the AUC [1] was 1220 ng·h/mL and the AUC [2] was 1970 ng·h/mL. For the same compound, the AUC [3] was 6500 ng·h/mL, the AUC [4] was 10300 ng·h/mL and the AUC [5] was 7260 ng·h/mL. For the same compound, the AUC [6] was 13200 ng·h/mL, the AUC [7] was 16100 ng·h/mL and the “CL/F,ss, mean (min–max)” value [1] was 10.73 (7.513–12.58) L/h. For the same compound, the “CL/F,ss, mean (min–max)” value [2] was 21.17 (13.80–29.53) L/h, the “CL/F,ss, mean (min–max)” value [3] was 6.512 (4.414–7.565) L/h and the “CL/F,ss, mean (min–max)” value [4] was 5.126 (4.592–6.098) L/h. The “CL/F,ss, mean (min–max)” value [5] was 13.91 (10.58–18.36) L/h, the “CL/F,ss, mean (min–max)” value [6] was 7.648 (5.819–8.842) L/h and the “CL/F,ss, mean (min–max)” value [7] was 6.087 (4.160–7.894) L/h. For the same compound, the “CL/F, mean (min–max)” value (single oral administration, 50 mg larotinib mesylate) was 62.01 (54.17–71.3) L/h, the “CL/F, mean (min–max)” value (single oral administration, 100 mg larotinib mesylate) was 73.81 (62.61–90.83) L/h and the “CL/F, mean (min–max)” value (single oral administration, 150 mg larotinib mesylate) was 29.11 (18.30–38.09) L/h. The “CL/F, mean (min–max)” value (single oral administration, 220 mg larotinib mesylate) was 27.79 (24.27–33.83) L/h, the “CL/F, mean (min–max)” value (single oral administration, 300 mg larotinib mesylate) was 63.76 (30.15–116.4) L/h and the “CL/F, mean (min–max)” value (single oral administration, 350 mg larotinib mesylate) was 55.78 (36.19–73.27) L/h. For the same compound, the “CL/F, mean (min–max)” value (single oral administration, 400 mg larotinib mesylate) was 70.47 (29.90–145.6) L/h.

— PMC7930822, “Phase I Trial to Evaluate the Tolerance, Pharmacokinetics and Efficacy of the Broad-Spectrum ErbB Family Inhibitor Larotinib Mesylate in Patients With Advanced Solid Tumors” (Frontiers in Pharmacology, 2021)
